Source: article PMC4829233, “Identification of Novel Chemical Scaffolds Inhibiting Trypanothione Synthetase from Pathogenic Trypanosomatids” (PLoS Neglected Tropical Diseases, 2016)
Read-outs that look alike come from different tables or passages of the source.

Legend:
Assay in all cases: biochemical
[1] = molecular target: TbTryS (Trypanosoma brucei trypanothione synthetase) (Trypanosoma brucei brucei, UniProt Q8IEX1); conditions: for activity at 30 µM: read-out: TbTryS Activity ± 2σn-1 (%)
[2] = molecular target: TcTryS (Trypanosoma cruzi trypanothione synthetase) (Trypanosoma cruzi, UniProt Q9GT49); assay type: biochemical; conditions: for remaining activity at 30 µM: read-out: TcTryS Activity ± 2σn-1 (%)
TcTryS (Trypanosoma cruzi trypanothione synthetase), sequence (Q9GT49 whole entry): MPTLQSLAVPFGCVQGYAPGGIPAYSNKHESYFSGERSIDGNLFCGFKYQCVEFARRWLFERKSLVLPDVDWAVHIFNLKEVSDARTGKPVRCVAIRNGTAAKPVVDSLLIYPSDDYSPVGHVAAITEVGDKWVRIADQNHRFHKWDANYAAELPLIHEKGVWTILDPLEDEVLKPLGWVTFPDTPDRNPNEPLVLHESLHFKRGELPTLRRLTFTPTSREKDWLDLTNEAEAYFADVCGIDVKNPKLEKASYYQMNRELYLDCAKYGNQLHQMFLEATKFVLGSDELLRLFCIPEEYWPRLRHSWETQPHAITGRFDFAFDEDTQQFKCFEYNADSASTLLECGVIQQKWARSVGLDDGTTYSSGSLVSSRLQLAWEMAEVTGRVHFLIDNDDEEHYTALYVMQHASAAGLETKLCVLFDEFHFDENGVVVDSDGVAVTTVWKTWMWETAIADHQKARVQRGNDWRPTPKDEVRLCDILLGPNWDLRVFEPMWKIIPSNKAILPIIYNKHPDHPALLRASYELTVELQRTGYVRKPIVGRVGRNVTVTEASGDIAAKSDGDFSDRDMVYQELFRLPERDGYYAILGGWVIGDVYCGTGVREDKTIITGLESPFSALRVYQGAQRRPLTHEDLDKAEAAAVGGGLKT

[3] = molecular target: LiTryS (Leishmania infantum trypanothione synthetase) (Leishmania infantum, UniProt A4I2Z3); assay type: biochemical; conditions: for activity at 30 µM: read-out: LiTryS Activity ± 2σn-1 (%)
LiTryS (Leishmania infantum trypanothione synthetase), sequence (A4I2Z3 1-652): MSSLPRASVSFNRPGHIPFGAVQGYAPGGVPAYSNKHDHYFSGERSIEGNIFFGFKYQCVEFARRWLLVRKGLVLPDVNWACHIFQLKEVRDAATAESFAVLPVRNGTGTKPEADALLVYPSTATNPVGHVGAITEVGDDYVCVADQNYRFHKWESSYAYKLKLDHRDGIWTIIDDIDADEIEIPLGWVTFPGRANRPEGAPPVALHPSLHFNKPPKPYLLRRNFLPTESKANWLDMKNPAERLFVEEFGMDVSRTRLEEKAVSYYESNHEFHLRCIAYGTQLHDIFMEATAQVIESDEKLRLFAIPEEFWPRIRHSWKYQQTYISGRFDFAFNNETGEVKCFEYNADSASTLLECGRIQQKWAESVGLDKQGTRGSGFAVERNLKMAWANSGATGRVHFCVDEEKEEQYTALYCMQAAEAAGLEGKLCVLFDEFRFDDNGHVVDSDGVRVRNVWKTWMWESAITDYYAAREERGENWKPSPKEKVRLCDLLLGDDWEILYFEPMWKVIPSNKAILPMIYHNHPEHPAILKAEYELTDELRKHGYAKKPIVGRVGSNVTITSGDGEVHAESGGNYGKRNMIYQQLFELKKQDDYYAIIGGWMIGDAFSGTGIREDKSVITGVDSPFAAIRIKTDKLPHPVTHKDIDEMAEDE

TbTryS (Trypanosoma brucei trypanothione synthetase), sequence (Q8IEX1 1-627): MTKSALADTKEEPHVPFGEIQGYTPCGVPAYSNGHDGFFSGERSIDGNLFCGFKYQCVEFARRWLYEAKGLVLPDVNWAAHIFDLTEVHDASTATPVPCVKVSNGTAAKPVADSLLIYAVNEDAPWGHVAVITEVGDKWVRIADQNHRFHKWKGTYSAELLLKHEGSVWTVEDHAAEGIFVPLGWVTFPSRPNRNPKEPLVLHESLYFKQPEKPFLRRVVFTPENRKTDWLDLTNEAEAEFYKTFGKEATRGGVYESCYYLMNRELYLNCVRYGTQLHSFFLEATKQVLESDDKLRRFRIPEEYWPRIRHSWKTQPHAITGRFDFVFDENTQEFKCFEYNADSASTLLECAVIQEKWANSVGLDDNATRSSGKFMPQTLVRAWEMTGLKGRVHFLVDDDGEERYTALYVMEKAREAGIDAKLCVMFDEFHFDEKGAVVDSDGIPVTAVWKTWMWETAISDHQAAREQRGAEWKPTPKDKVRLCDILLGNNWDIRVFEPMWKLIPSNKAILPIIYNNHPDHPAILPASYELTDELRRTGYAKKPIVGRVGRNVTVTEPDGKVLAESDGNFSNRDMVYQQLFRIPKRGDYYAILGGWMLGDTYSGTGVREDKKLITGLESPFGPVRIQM

Row | Structure (SMILES) | TcTryS Activity ± 2σn-1 (%) [2] | TbTryS Activity ± 2σn-1 (%) [1] | LiTryS Activity ± 2σn-1 (%) [3] | further results
1 | COc1cc(C2C(C(=O)c3ccc4c(c3)OCCO4)=C(O)C(=O)N2c2nc3ccc(Cl)cc3s2)ccc1O (centres unmarked) [ADMRC158] | 97.4 ± 6.1; 4% | – | – | TbTryS Activity ± 2σn-1 (%) ([1]; 30 µM): 119.1 ± 4.6; 5 (0.88) %; activity at 30 µM [1]: 119%; remaining activity at 30 µM [2]: 97.4 ± 6.1%; activity at 30 µM [3]: 85.3 ± 8.7%
2 | c1ccc(COc2ccc(CNCCCNCc3ccc(OCc4ccccc4)cc3)cc2)cc1 [APC1-71B] | 99.0 ± 19.1; 2% | 66.0 ± 0.7; 3% | 80.8 ± 8.7; 3% | –
3 | Cc1ccc(CNCCCCCCCCNCc2ccc(C)cc2)cc1 [EAP1-45] | 92.3 ± 4.5; 4% | 78.4 ± 0.6; 3% | 91.9 ± 2.7; 3% | –
4 | CC(C)c1ccc(CNCCCCCCCCNCc2ccc(C(C)C)cc2)cc1 [EAP1-37] | 65.6 ± 5.3; 4 (1.46) % | 56.8 ± 5.6; 3 (1.43) % | 77.4 ± 7.9; 9 (1.284) % | –
5 | c1ccc(CNCCCCCCCCCCNCc2ccccc2)cc1 [APC1-113] | 88.5 ± 6.6; 3% | 89.5 ± 3.6; 3% | 86.9 ± 6.3; 3% | –
6 | Fc1ccc(CNCCCCCCCCCCCCNCc2ccc(F)cc2)cc1 [EAP1-69] | 56.3 ± 3.6; 3% | 81.4 ± 5.6; 4 (1.39) % | 63.2 ± 5.0; 4% | % TcTryS inhibition ± 2σn-1 [2]: ~ 50%
7 | COc1cc(CNCCCCCCCCCCNCc2ccc(OCc3ccccc3)c(OC)c2)ccc1OCc1ccccc1 [APC1-119] | 101.5 ± 1.9; 4 (1.18) % | 55.5 ± 1.8. 3 (1.11) % | 78.1 ± 9.8; 6 (1.219) % | –
8 | O=C(C1=C(O)C(=O)N(c2nc3ccc(Cl)cc3s2)C1c1ccccc1)c1ccc2c(c1)OCCO2 (centres unmarked) [ADMRC159] | 97.2 ± 7.8; 2% | 91.7 ± 6.5; 3% | 64.1 ± 2.7; 4% | % LiTryS inhibition ± 2σn-1 [3]: ~35%
9 | Cc1ccc(CNCCCCCCCCCCNCc2ccc(C)cc2)cc1 [EAP1-55] | 68.6 ± 3.9; 2% | 61.8 ± 4.8; 3% | 71.5 ± 5.8; 4% | –
10 | COc1ccc(CNCCCNCc2ccc(OC)cc2)cc1 [APC1-67] | – | – | – | activity at 30 µM [1]: 71.9%; remaining activity at 30 µM [2]: 92.4%; activity at 30 µM [3]: 102%
11 | COc1ccc(C2C(C(=O)c3ccc4c(c3)OCCO4)=C(O)C(=O)N2c2nc3ccc(C)cc3s2)cc1 (centres unmarked) [AD81] | 109.7 ± 8.9; 4% | – | – | TbTryS Activity ± 2σn-1 (%) ([1]; 30 µM): 128.2 ± 3.6 ; 8 (0.93) %; activity at 30 µM [1]: 128%; remaining activity at 30 µM [2]: 110 ± 8.9%; activity at 30 µM [3]: 83.9 ± 4.2%
12 | COc1ccc2nc(N3C(=O)C(O)=C(C(=O)c4ccc5c(c4)OCCO5)C3c3ccc(OC)c(OC)c3)sc2c1 (centres unmarked) [ADMRC155] | 104.0 ± 6.6; 4% | 97.5 ± 3.4; 3% | 89.3 ± 7.4; 3% | –
13 | COc1ccc(CNCCCCCCCCCCNCc2ccc(OC)cc2)cc1 [APC1-115] | 76.1 ± 2.5; 4% | 69.0 ± 6.3; 3% | 79.8 ± 2.3; 3% | –
14 | Fc1ccc(CNCCCCCCCCCCNCc2ccc(F)cc2)cc1 [EAP1-51] | 87.5 ± 4.6; 4% | 81.0 ± 7.5; 3% | 80.6 ± 2.7; 4% | –
15 | O=C(C1=C(O)C(=O)N(c2nc3ccccc3s2)C1c1ccc(F)cc1)c1ccc2c(c1)OCCO2 (centres unmarked) [ADPKN161] | 90.8 ± 5.8; 4% | – | – | activity at 30 µM [1]: 127%; remaining activity at 30 µM [2]: 90.8 ± 5.8%; activity at 30 µM [3]: 83.5 ± 9.2%
16 | [O-][n+]1onc2cc(F)c(F)cc21 [Compound J40] | 87.4 ± 1.6; 3% | 85.0 ± 1.4; 2% | 92.9 ± 5.1; 4% | –

Row | Structure (SMILES) | TcTryS Activity ± 2σn-1 (%) [2] | TbTryS Activity ± 2σn-1 (%) [1] | LiTryS Activity ± 2σn-1 (%) [3] | further results
17 | Cc1ccc2c(c1)no[n+]2[O-] [Compound J10] | 92.6 ± 10.8; 3% | 92.7 ± 3.4; 3% | 84.7 ± 10.5; 4% | –
18 | [O-][n+]1onc2cc(C(F)(F)F)ccc21 [Compound J25] | 81.8 ± 2.2; 3% | 98.4 ± 4.2; 3% | 110.7 ± 2.4; 3% | –
19 | COc1ccc(C2C(C(=O)c3ccc(OC)c(OC)c3)=C(O)C(=O)N2c2nc3ccc(OC)cc3s2)cc1 (centres unmarked) [ADPKN 162] | 98.1 ± 4.7; 4% | 82.0 ± 1.6; 3% | 79.8 ± 3.4; 4% | –
20 | [O-][n+]1onc2cc(I)ccc21 [Compound J27] | 90.1 ± 5.9; 3% | 98.2 ± 5.6; 3% | 71.0 ± 8.0; 3% | –
21 | [O-][n+]1onc2c(Cl)cc(Cl)cc21 [Compound J26] | 95.8 ± 1.1; 3% | 104.9 ± 5.7; 3% | 88.0 ± 1.0; 3% | –
22 | Cc1ccc2nc(N3C(=O)C(O)=C(C(=O)c4ccc5c(c4)OCCO5)C3c3ccc(F)cc3)sc2c1 (centres unmarked) [ADMRC154] | 93.9 ± 2.1; 3% | 110.3 ± 8.7 ; 12% | 64.7 ± 3.7; 4% | % LiTryS inhibition ± 2σn-1 [3]: ~35%
23 | c1ccc(COc2ccc(CNCCCCCCCCNCc3ccc(OCc4ccccc4)cc3)cc2)cc1 [APC1-109] | 66.2 ± 10.9; 2% | – | 72.2 ± 6.2; 4% | –
24 | Clc1ccc(CNCCCCCCCCCCCCNCc2ccc(Cl)cc2)cc1 [EAP1-67] | 76.2 ± 6.6; 4 (1.34) % | 57.6 ± 1.6; 4 (1.33) % | – | % TbTryS inhibition ± 2σn-1 [1]: 42.4 ± 1.6%; (1.33); % TcTryS inhibition ± 2σn-1 [2]: 23.8 ± 6.6%; (1.34); IC50 ([3]; read-out: LiTryS IC50 (estimated)): ~30 µM
25 | Clc1ccc(CNCCCCCCCCCCNCc2ccc(Cl)cc2)cc1 [EAP1-53] | 73.3 ± 2.3; 4% | 63.9 ± 4.1; 4 (1.34) % | 69 ± 5.7; 4 (1.305) % | –
26 | c1ccc(COc2ccc(CNCCCCCCNCc3ccc(OCc4ccccc4)cc3)cc2)cc1 [APC1-99] | – | – | – | IC50 [1]: ~30 µM; inhibition at 30 µM ([2]; read-out: % TcTryS inhibition ± 2σn-1): 33.4 ± 4.1%; remaining activity at 30 µM [2]: 66.6%
27 | Fc1ccc(CNCCCCCCCCNCc2ccc(F)cc2)cc1 [EAP1-39] | 96.0 ± 4.0; 4% | 85.7 ± 2.0; 3% | 69.6 ± 5.5; 4% | –
28 | COc1ccc(C2C(C(=O)c3ccc4c(c3)OCCO4)=C(O)C(=O)N2c2nc3ccc(Cl)cc3s2)cc1OC (centres unmarked) [ADMRC157] | 109.2 ± 1.5; 4% | 102.1 ± 0.01; 3% | 89.1 ± 2.8; 4% | –
29 | [O-][n+]1onc2cc(Cl)c(Cl)cc21 [Compound J13] | 84.9 ± 4.4; 3% | 88.9 ± 2.7; 3% | 102.2 ± 7.8; 3% | –
30 | [O-][n+]1onc2cc(Br)ccc21 [Compound J33] | 98.1 ± 4.0; 3% | 96.5 ± 6.3; 3% | 76.0 ± 6.8; 3% | –
31 | O=[N+]([O-])c1ccc2c(c1)no[n+]2[O-] [Compound J16] | 76.5 ± 1.0; 3% | 92.6 ± 4.9; 3% | 80.1 ± 9.2; 4% | –
32 | CN1CCN(CCCN2c3ccccc3Sc3ccc(Cl)cc32)CC1 [prochlorperazine, reference compound] | – | – | – | inhibition of TcTryS [2]: none of the TryS was inhibited; reduction of TcTryS activity [2]: 34%
